{"source": "patent US9636308B2", "about": "“High drug load buprenorphine microspheres and method of producing same” (Oakwood Laboratories LLC, priority 2013, dated 2017)", "assay": "Solubility of buprenorphine in solvent systems by visual observation", "description": "DCM was used as the main solvent and BzOH as the co-solvent.", "data": [{"smiles": "CO[C@@]12CC[C@@]3(C[C@@H]1[C@](C)(O)C(C)(C)C)[C@H]1Cc4ccc(O)c5c4[C@@]3(CCN1CC1CC1)[C@H]2O5.Cl", "note": "[Buprenorphine (salt form), Buprenorphine hydrochloride]", "values": [{"measurement": "Increase of solubility by addition of BzOH to DCM", "setting": "DCM:BzOH 2:1 by weight versus DCM alone", "value": "~46", "unit": "fold"}, {"measurement": "Solubility", "setting": "solvent DCM with benzyl alcohol co-solvent (33% by weight; 2:1 DCM:BzOH)", "value": 0.083, "unit": "g/g"}, {"measurement": "Solubility", "setting": "solvent DCM, no co-solvent", "value": 0.0018, "unit": "g/g"}]}]}
